US20230174936A1, “IMMUNOSUPPRESSANT-RESISTANT T-CELLS FOR ADOPTIVE IMMUNOTHERAPY” (CHARITÉ - UNIVERSITÄTSMEDIZIN BERLIN, priority 2020, published 2023)
Entries after “also recorded” stand apart in the source; their conditions may differ.

Experiments:
[1] = tested on: target cells loaded with SARS-CoV-2 peptides
[2] = tested on: Regulatory T cells; assay: Treg expansion in medium with or without calcineurin inhibitors; format: cell-based, human; details: Tac 6 ng/ml
Experimental: Edited and control Treg cells were subsequently expanded in medium with or without different calcineurin inhibitors and subsequently analysed for cell expansion (A) and with flow cytometry (B+C). […] CTLA4 is known to suppress T cells and modulate pro-inflammatory responses by dendritic cells. […] Light bars are untouched expanded Treg, dark bars are FKBP12^k.o.expanded Treg. Tac was used at 6 ng/ml, CsA was used at 125 ng/ml, which corresponds to pharmacological doses that may, e.g., found in patient serum.
FKBP12^KO and control Treg cells were subsequently expanded in medium with or without different calcineurin inhibitors and subsequently analysed for cell expansion (FIG. 11 A) and with flow cytometry (FIG. 11 B+C). […] CTLA4 is known to suppress T cells and modulate pro-inflammatory responses by dendritic cells.

[3] = tested on: CMV-specific T-cell products; assay: CMV-specific stimulation at day 21, intracellular cytokines by flow cytometry; format: cell-based, human
Experimental: FIG. 2: Functional profiles of CMV-specific T-cell products with disrupted FKBP12 CMV-specific stimulation of T-cell products at day 21 of culture using antigen-presenting cells (autologous lymphoblastic B-cell lines) pulsed with overlapping peptide pools of CMVIE-1 and CMVpp65 (6 h stimulation). Cytokines were captured in T-cells by addition of Brefeldin A after 1 h of stimulation and cells were stained using a fixation/permeabilization kit and fluorescently 1a-belled antibodies. Data were acquired by multicolor flow cytometry. Immunosuppressants were added where indicated at the following clinically relevant doses: Tac = 6 ng/ml Tacrolimus; CsA ═ 120 ng/ml Cyclosporine A; Tac/Pred/MPA = 6 ng/ml Tacrolimus + 0.57 µg/ml Prednisolone + 2.7 µg/ml Mycophenolic acid. Stars symbolize p-values < 0.05, which were determined by tests for normal distribution (Shapiro-Wilk and Kolmogorov-Smirnov tests), followed by one-way ANOVA (normally distributed data sets) or Friedman test (not normally distributed data sets) and paired t-tests (normally distributed data sets) or Wilcoxon matched pairs signed rank tests (not normally distributed data sets) as posttests. […]

[4] = tested on: K562 cells; assay: NK92 cytotoxicity in co-culture with K562; format: cell-based, human; details: 1:1 with K562, n = 1
Experimental: FIG. 19: Killing efficiency pf FKBP12^KO NK cells NK92 were electroporated with Cas9 protein and sgRNA#1(Table 1). After 5 days they were incubated with K562 cells at a ratio of 1:1. Killing capacity was calculated by the reduction in frequency of K562 cells. n = 1.
We performed a proof-of-principle experiment to confirm feasibility of FKBP12^KO in the NK cell line NK92. Four days prior to the experiment, FKBP12^KO NK92 cells were electroporated with Cas9 + FKBP12 sgRNA#1 (Table 1). NK cell cytotoxicity was assessed by co-culture with the MHC class I deficient erythroleukemia cell line K562. To this end, NK92 and CFSE-labeled K562 cells were mixed at a 1:1 ratio. After a total of 8 hours, the reaction was stopped by washing with cold 1X PBS. The cells were stained with Life Dead UV before fixation and permeabilization (IC Fix/Perm Kit, Thermo Fisher). Fixation was performed for 30 minutes at RT. The stained cells were analyzed with a Cytoflex LX. Analysis was performed with FlowJo v10.

Molecule | T-cell-mediated cytotoxic killing of target cells [1] | proliferation of untouched Tregs [2] | proportion of IFNγ-producers ([3]; effect of Tacrolimus on T-cells of CMV-TCPs) | killing efficiency in non-edited NK92 cells [4] | cytokine producers / T-cell function in the presence of Tacrolimus ([3]; 6 ng/ml Tacrolimus, TCPs edited with the named sgRNA)
C=CC[C@@H]1/C=C(\C)C[C@H](C)C[C@H](OC)[C@H]2O[C@@](O)(C(=O)C(=O)N3CCCC[C@H]3C(=O)O[C@H](/C(C)=C/[C@@H]3CC[C@@H](O)[C@H](OC)C3)[C@H](C)[C@@H](O)CC1=O)[C@H](C)C[C@@H]2OC [Tacrolimus] | not affected | reduced the proliferation | significantly reduced | decreased killing efficiency | 
sgRNA#2: FKBP12-specific guide RNA targeting SEQ ID NO: 1; full sequence SEQ ID NO: 17 (nucleic acid, synthetic chemically modified sgRNA, pattern not given here) guide: GGGCGCACCUUCCCCAAGCGGUUUUAGAGCUAGAAAUAGCAAGUUAAAAUAAGGCUAGUCCGUUAUCAACUUGAAAAAGUGGCACCGAGUCGGUGC |  |  |  |  | superior function in maintaining T-cell function; also recorded: retained physiological levels of cytokine producers
